Reference: ChEMBL document CHEMBL3997788, “Virtual screening and experimental validation identify novel modulators of nuclear receptor RXRα from Drugbank database” (Bioorg Med Chem Lett, 2017)
pKd: −log10 of the molar value. Active and inactive are the calls of the source. The calls are words filed in the database; no cut-off is given here.

Columns and labels:
[1] = target: T1, Retinoic acid receptor RXR-alpha (Homo sapiens) (UniProt P19793); assay: Antagonist activity at Myc-tagged RXRalpha (unknown origin) expressed in human MCF-7 cells assessed as inhibition of 9-cis-RA induced receptor transactivation at 10 uM after 24 hrs by luciferase reporter gene assay; type: cell-based
T1 sequence (whole entry): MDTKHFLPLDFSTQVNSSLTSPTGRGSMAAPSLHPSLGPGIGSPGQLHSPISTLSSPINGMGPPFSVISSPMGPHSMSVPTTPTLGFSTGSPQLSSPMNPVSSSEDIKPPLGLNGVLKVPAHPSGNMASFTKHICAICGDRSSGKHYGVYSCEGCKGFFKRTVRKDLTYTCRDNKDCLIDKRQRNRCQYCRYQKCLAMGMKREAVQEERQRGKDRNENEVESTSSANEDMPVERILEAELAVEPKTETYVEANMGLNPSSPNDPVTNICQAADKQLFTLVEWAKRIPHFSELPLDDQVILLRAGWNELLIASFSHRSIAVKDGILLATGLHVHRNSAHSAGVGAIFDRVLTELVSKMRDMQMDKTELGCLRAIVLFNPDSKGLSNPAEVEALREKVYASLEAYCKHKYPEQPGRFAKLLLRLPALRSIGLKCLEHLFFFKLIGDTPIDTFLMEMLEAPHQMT

[2] = target: T1, Retinoic acid receptor RXR-alpha (Homo sapiens); assay: Agonist activity at Myc-tagged RXRalpha (unknown origin) expressed in human MCF-7 cells assessed as increase in 9-cis-RA induced receptor transactivation at 5 to 10 uM after 24 hrs by luciferase reporter gene assay; type: cell-based
[3] = target: T2, Retinoic acid receptor RXR-alpha (Homo sapiens, UniProt P19793); assay: Binding affinity to RXRalpha-LBD (unknown origin) measured up to 120 sec by surface plasma resonance method
T2 sequence (P19793 whole entry): T1 sequence (whole entry)

[4] = target: T1, Retinoic acid receptor RXR-alpha (Homo sapiens); assay: Agonist activity at Myc-tagged RXRalpha (unknown origin) expressed in human MCF-7 cells assessed as receptor transactivation at 10 uM after 24 hrs by luciferase reporter gene assay; type: cell-based
[5] = target: T1, Retinoic acid receptor RXR-alpha (Homo sapiens); assay: Agonist activity at Myc-tagged RXRalpha (unknown origin) expressed in human MCF-7 cells assessed as increase in 9-cis-RA induced receptor transactivation at 1 uM after 24 hrs by luciferase reporter gene assay; type: cell-based
[6] = target: T1, Retinoic acid receptor RXR-alpha (Homo sapiens); assay: Antagonist activity at Myc-tagged RXRalpha (unknown origin) expressed in human MCF-7 cells assessed as inhibition of 9-cis-RA induced receptor transactivation at 100 nM after 24 hrs by luciferase reporter gene assay; type: cell-based
[7] = target: T1, Retinoic acid receptor RXR-alpha (Homo sapiens); assay: Antagonist activity at Myc-tagged RXRalpha (unknown origin) expressed in human MCF-7 cells assessed as inhibition of 9-cis-RA induced receptor transactivation at 1 uM after 24 hrs by luciferase reporter gene assay; type: cell-based
[8] = target: T1, Retinoic acid receptor RXR-alpha (Homo sapiens); assay: Antagonist activity at Myc-tagged RXRalpha (unknown origin) expressed in human MCF-7 cells assessed as inhibition of 9-cis-RA induced receptor transactivation after 24 hrs by luciferase reporter gene assay; type: cell-based

Structure (SMILES)	inhibition [1]	pKd [3]	also measured
CC[C@H](C)C(=O)O[C@H]1C[C@@H](O)C=C2C=C[C@H](C)[C@H](CC[C@@H](O)C[C@@H](O)CC(=O)O)[C@H]21	inactive		
CC(C)c1nc(N(C)S(C)(=O)=O)nc(-c2ccc(F)cc2)c1/C=C/[C@@H](O)C[C@@H](O)CC(=O)O	Active		
O=C1[C@H](CC[C@H](O)c2ccc(F)cc2)[C@@H](c2ccc(O)cc2)N1c1ccc(F)cc1	Active		
Clc1ccc(CCC(Cn2ccnc2)Sc2c(Cl)cccc2Cl)cc1 (stereo not drawn)	Active		
O=c1[nH]c2ccccc2n1CCCN1CCC(n2c(=O)[nH]c3cc(Cl)ccc32)CC1 [DOMPERIDONE]		5.06	Activity [2]: Active; Activity [4]: inactive; Activity [5]: inactive
O=C(O)/C=C/C=C/C=C/c1c(C2CC2)nc2ccccc2c1-c1ccc(F)cc1		5.29	inhibition [6]: Active
O=C(O)C[C@H](O)C[C@H](O)/C=C/c1c(C2CC2)nc2ccccc2c1-c1ccc(F)cc1 [PITAVASTATIN CALCIUM]	Active	4.88	inhibition [7]: Active
O=C1CCc2cc(OCCCCc3nnnn3C3CCCCC3)ccc2N1	Active		
CC1=C(C)C(=O)C(C(CCCCCC(=O)O)c2ccccc2)=C(C)C1=O (stereo not drawn)	Active		
CC(C)n1c(/C=C/C(O)CC(O)CC(=O)O)c(-c2ccc(F)cc2)c2ccccc21 (stereo not drawn) [FLUVASTATIN]	Active	4.96	inhibition [8]: Dose-dependent effect
O=C1C=CCC(/C=C/c2c(C3CC3)nc3ccccc3c2-c2ccc(F)cc2)O1 (stereo not drawn)	inactive	3.86	
CN(CCOc1ccc(CC2SC(=O)NC2=O)cc1)c1ccccn1 (stereo not drawn)			Activity [2]: Active; Activity [4]: inactive; Activity [5]: inactive
